# PMC5095863 (Chembiochem, 2016)
# pIC50: −log10 of the molar value.
# What was measured:
# Format in all cases: biochemical
# [1] = target: T1, SIRT6 (Homo sapiens, UniProt Q8N6T7); assay: Fluorescence enhancement due to enzymatic reaction of SFP1-3 with SIRT6; details: 5 mM NAM, 48 nM SIRT6, 500 μM NAD, 37 °C
# [2] = target: T2, SIRT1 (Homo sapiens, UniProt Q96EB6); assay: Evaluation of SIRT inhibitors and activators with SFP3, SIRT1; details: hydrolysis of 2.5 μM SFP3, 7 nM SIRT1, 500 μM NAD+, 37 °C, 60 min
# T2 sequence (Q96EB6 1-747): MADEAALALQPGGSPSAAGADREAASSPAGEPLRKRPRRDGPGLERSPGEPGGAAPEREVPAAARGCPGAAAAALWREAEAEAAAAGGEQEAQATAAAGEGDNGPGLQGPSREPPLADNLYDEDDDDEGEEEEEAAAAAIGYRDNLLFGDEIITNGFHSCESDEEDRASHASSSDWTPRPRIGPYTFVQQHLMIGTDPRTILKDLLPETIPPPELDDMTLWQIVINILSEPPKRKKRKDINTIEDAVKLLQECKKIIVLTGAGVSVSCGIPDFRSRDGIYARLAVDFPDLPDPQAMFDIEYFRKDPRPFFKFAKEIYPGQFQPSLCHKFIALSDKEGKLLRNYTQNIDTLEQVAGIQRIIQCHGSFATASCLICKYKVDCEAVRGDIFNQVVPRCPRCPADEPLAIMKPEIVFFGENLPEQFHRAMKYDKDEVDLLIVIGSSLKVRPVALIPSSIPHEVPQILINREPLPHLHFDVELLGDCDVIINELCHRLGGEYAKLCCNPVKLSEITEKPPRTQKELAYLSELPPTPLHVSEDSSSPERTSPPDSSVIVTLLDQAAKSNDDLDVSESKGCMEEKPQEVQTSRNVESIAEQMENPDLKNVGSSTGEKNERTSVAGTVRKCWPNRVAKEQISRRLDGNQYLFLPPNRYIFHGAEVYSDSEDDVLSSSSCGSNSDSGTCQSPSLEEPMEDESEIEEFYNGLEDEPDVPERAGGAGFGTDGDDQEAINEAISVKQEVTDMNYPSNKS
# [3] = target: T1, SIRT6; assay: Evaluation of SIRT inhibitors and activators with SFP3, SIRT6
# T1 sequence (Q8N6T7 whole entry): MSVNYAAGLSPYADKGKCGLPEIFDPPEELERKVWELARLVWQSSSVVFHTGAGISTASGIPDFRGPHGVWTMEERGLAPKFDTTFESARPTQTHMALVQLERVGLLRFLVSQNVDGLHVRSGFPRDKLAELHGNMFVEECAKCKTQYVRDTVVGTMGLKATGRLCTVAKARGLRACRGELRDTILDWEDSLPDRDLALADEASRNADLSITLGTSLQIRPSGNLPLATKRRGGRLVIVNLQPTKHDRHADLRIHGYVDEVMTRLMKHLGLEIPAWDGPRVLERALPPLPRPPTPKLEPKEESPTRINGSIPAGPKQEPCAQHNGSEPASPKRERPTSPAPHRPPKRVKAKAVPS
Compound,effect on SIRT6-dependent fluorescence increments of SFP2 and SFP3 [1],effect on SIRT1 activity [2],"effect on SIRT6 activity ([3]; hydrolysis of 2.5 μM SFP3, 48 nM SIRT6, 500 μM NAD+, 37 °C, 60 min)",pIC50 [3]
"NC(=O)c1cccnc1 [NAM, nicotinamide]",suppressed,–,–,–
"O=c1c(O)c(-c2ccc(O)c(O)c2)oc2cc(O)cc(O)c12 [Quercetin, quercetin]",–,"inhibition at lower concentration, but activation at higher concentration","inhibition at lower concentration, but activation at higher concentration",–
"Oc1ccc(/C=C/c2cc(O)cc(O)c2)cc1 [Resveratrol, resveratrol]",–,did not affect,–,~3.72
